# Test results taken from patent US20080233127A1, “IMIDAZOLOPYRIMIDINE ANALOGS AND THEIR USE AS PI3 KINASE AND MTOR INHIBITORS” (Wyeth, priority 2007, published 2008).
# Experiments:
# PI3 Kinase = assay: PI3K fluorescence polarization assay; format: biochemical; conditions: 25 μM ATP, diC8-PI(4,5)P2 substrate, 1 hour at 25° C.; read-out: PI3 Kinase Median IC50
# human TOR = biological target: T1, human TOR (Homo sapiens, UniProt P42345); assay: mTOR enzyme assay (DELFIA format, purified FLAG-TOR, His6-S6K substrate); format: biochemical; conditions: 100 μM ATP, 1.25 μM His6-S6K, 2 hours at room temperature; read-out: TOR Kinase Median IC50
# T1 construct: FLAG
Structure (SMILES),IC50 (PI3 Kinase),IC50 (human TOR)
"OCc1cccc(-c2nc(N3CCOCC3)c3ncn(C4CCN(Cc5ccccc5F)CC4)c3n2)c1 [Compound 45, (3-{9-[1-(2-fluorobenzyl)piperidin-4-yl]-6-morpholin-4-yl-9H-purin-2-yl}phenyl)methanol]",42 nM,160 nM
"OCc1cccc(-c2nc(N3CCOCC3)c3ncn(C4CCN(Cc5ccc(F)cc5)CC4)c3n2)c1 [Compound 46, (3-{9-[1-(4-fluorobenzyl)piperidin-4-yl]-6-morpholin-4-yl-9H-purin-2-yl}phenyl)methanol]",70 nM,1700 nM
CCCCN1CCC(n2cnc3c(N4CCOCC4)nc(-c4cccc(CO)c4)nc32)CC1 [Compound 48],96 nM,4200 nM
"OCc1cccc(-c2nc(N3CCOCC3)c3ncn(C4CCN(Cc5ccc(F)cc5F)CC4)c3n2)c1 [Compound 49, (3-{9-[1-(2,4-difluorobenzyl)piperidin-4-yl]-6-morpholin-4-yl-9H-purin-2-yl}phenyl)methanol]",44 nM,2050 nM
"OCc1cccc(-c2nc(N3CCOCC3)c3ncn(C4CCN(Cc5cccc(F)c5)CC4)c3n2)c1 [Compound 50, (3-{9-[1-(3-fluorobenzyl)piperidin-4-yl]-6-morpholin-4-yl-9H-purin-2-yl}phenyl)methanol]",94 nM,1400 nM
"CC(C)(C)OC(=O)N1CCC(n2cnc3c(N4CCOCC4)nc(-c4cccc(O)c4)nc32)CC1 [Compound 57, tert-butyl 4-{2-(3-hydroxyphenyl)-6-morpholino-9H-purin-9-yl}piperidine-1-carboxylate]",288 nM,270 nM
"COCOc1cncc(-c2nc(N3CCOCC3)c3ncn(C4CCN(C(=O)OC(C)(C)C)CC4)c3n2)c1 [Compound 58, tert-butyl-4-{2-[5-(methoxymethoxy)pyridin-3-yl]-6-morpholin-4-yl-9H-purin-9-yl}piperidine-1-carboxylate]",2090 nM,> 4000 nM
"OCc1cccc(-c2nc(N3CCOCC3)c3ncn(C4CCN(Cc5ccc(F)nc5)CC4)c3n2)c1 [Compound 61, [3-(9-{1-[(6-fluoropyridin-3-yl)methyl]piperidin-4-yl}-6-morpholin-4-yl-9H-purin-2-yl)phenyl]methanol]",47 nM,710 nM
"COc1ccc(CN2CCC(n3cnc4c(N5CCOCC5)nc(-c5cccc(CO)c5)nc43)CC2)cn1 [Compound 64, [3-(9-{1-[(6-methoxypyridin-3-yl)methyl]piperidin-4-yl}-6-morpholin-4-yl-9H-purin-2-yl)phenyl]methanol]",168 nM,> 4000 nM
"OCc1cccc(-c2nc(N3CCOCC3)c3ncn(C4CCN(Cc5cncc(F)c5)CC4)c3n2)c1 [Compound 66, [3-(9-{1-[(5-fluoropyridin-3-yl)methyl]piperidin-4-yl}-6-morpholin-4-yl-9H-purin-2-yl)phenyl]methanol]",177 nM,> 4000 nM
"OCc1cccc(-c2nc(N3CCOCC3)c3ncn(C4CCN(Cc5ccc[nH]5)CC4)c3n2)c1 [Compound 68, (3-{6-morpholin-4-yl-9-[1-(1H-pyrrol-2-ylmethyl)piperidin-4-yl]-9H-purin-2-yl}phenyl)methanol]",37 nM,2500 nM
"OCc1cccc(-c2nc(N3CCOCC3)c3ncn(C4CCN(Cc5ncc[nH]5)CC4)c3n2)c1 [Compound 70, (3-{9-[1-(1H-imidazol-2-ylmethyl)piperidin-4-yl]-6-morpholin-4-yl-9H-purin-2-yl}phenyl)methanol]",152 nM,1500 nM
"OCc1cccc(-c2nc(N3CCOCC3)c3ncn(C4CCN(Cc5cccc(N6CCOCC6)n5)CC4)c3n2)c1 [Compound 72, [3-(6-morpholin-4-yl-9-{1-[(6-morpholin-4-ylpyridin-2-yl)methyl]piperidin-4-yl}-9H-purin-2-yl)phenyl]methanol]",99 nM,1800 nM
"OCc1cccc(-c2nc(N3CCOCC3)c3ncn(C4CCN(Cc5c[nH]c6ccc(F)cc56)CC4)c3n2)c1 [Compound 73, [3-(9-{1-[(5-fluoro-1H-indol-3-yl)methyl]piperidin-4-yl}-6-morpholin-4-yl-9H-purin-2-yl)phenyl]methanol]",30 nM,1300 nM
"OCc1cccc(-c2nc(N3CCOCC3)c3ncn(C4CCN(Cc5cnc6n5CCOC6)CC4)c3n2)c1 [Compound 74, (3-{9-[1-(5,6-dihydro-8H-imidazo[2,1-c][1,4]oxazin-3-ylmethyl)piperidin-4-yl]-6-morpholin-4-yl-9H-purin-2-yl}phenyl)methanol]",94 nM,2000 nM
"COc1ccc(CN2CCC(n3cnc4c(N5CCOCC5)nc(-c5cccc(O)c5)nc43)CC2)cn1 [Compound 79, 3-(9-{1-[(6-methoxypyridin-3-yl)methyl]piperidin-4-yl}-6-morpholin-4-yl-9H-purin-2-yl)phenol]",55 nM,51 nM
"Oc1cccc(-c2nc(N3CCOCC3)c3ncn(C4CCN(Cc5ccc(N6CCOCC6)nc5)CC4)c3n2)c1 [Compound 82, 3-(6-morpholin-4-yl-9-{1-[(6-morpholin-4-ylpyridin-3-yl)methyl]piperidin-4-yl}-9H-purin-2-yl)phenol]",55 nM,145 nM
"Oc1cccc(-c2nc(N3CCOCC3)c3ncn(C4CCN(Cc5ccc(F)nc5)CC4)c3n2)c1 [Compound 84, 3-(9-{1-[(6-fluoropyridin-3-yl)methyl]piperidin-4-yl}-6-morpholin-4-yl-9H-purin-2-yl)phenol]",70 nM,310 nM
"Oc1cncc(-c2nc(N3CCOCC3)c3ncn(C4CCN(Cc5ccccc5)CC4)c3n2)c1 [Compound 87, 5-[9-(1-benzylpiperidin-4-yl)-6-morpholin-4-yl-9H-purin-2-yl]pyridin-3-ol]",87 nM,550 nM

# The remaining compounds from weak to strong by IC50 (PI3 Kinase), led by results:
IC50 (PI3 Kinase),IC50 (human TOR),Structure (SMILES)
518 nM,> 4000 nM,"Cc1ccc(CN2CCC(n3cnc4c(N5CCOCC5)nc(-c5cccc(CO)c5)nc43)CC2)s1 [Compound 67, [3-(9-{1-[(5-methyl-2-thienyl)methyl]piperidin-4-yl}-6-morpholin-4-yl-9H-purin-2-yl)phenyl]methanol]"
194 nM,3300 nM,"OCc1cccc(-c2nc(N3CCOCC3)c3ncn(C4CCN(Cc5c(F)cc(F)cc5F)CC4)c3n2)c1 [Compound 60, (3-{6-morpholin-4-yl-9-[1-(2,4,6-trifluorobenzyl)piperidin-4-yl]-9H-purin-2-yl}phenyl)methanol]"
163 nM,9800 nM,"Oc1cccc(-c2nc(N3CCOCC3)c3ncn(CCN4CCCCC4)c3n2)c1 [Compound 85, 3-[6-morpholin-4-yl-9-(2-piperidin-1-ylethyl)-9H-purin-2-yl]phenol]"
156 nM,290 nM,"Oc1cccc(-c2nc(N3CCOCC3)c3ncn(C4CCN(Cc5ccccn5)CC4)c3n2)c1 [Compound 77, 3-{6-morpholin-4-yl-9-[1-(pyridin-2-ylmethyl)piperidin-4-yl]-9H-purin-2-yl}phenol]"
95 nM,1400 nM,"CC(C)(C)OC(=O)N1CCC(n2cnc3c(N4CCOCC4)nc(-c4cccc(CO)c4)nc32)CC1 [Compound 59, tert-butyl 4-{2-[3-(hydroxymethyl)phenyl]-6-morpholin-4-yl-9H-purin-9-yl}piperidine-1-carboxylate]"
91 nM,13000 nM,"OCc1cccc(-c2nc(N3CCOCC3)c3ncn(CCN4CCCCC4)c3n2)c1 [Compound 86, {3-[6-morpholin-4-yl-9-(2-piperidin-1-ylethyl)-9H-purin-2-yl]phenyl}methanol]"
83 nM,360 nM,"CN(C)c1ccc(CN2CCC(n3cnc4c(N5CCOCC5)nc(-c5cccc(O)c5)nc43)CC2)c2ccccc12 [Compound 83, 3-[9-(1-{[4-(dimethylamino)-1-naphthyl]methyl}piperidin-4-yl)-6-morpholin-4-yl-9H-purin-2-yl]phenol]"
77 nM,1550 nM,"OCc1cccc(-c2nc(N3CCOCC3)c3ncn(C4CCN(Cc5ccc(F)cc5Cl)CC4)c3n2)c1 [Compound 69, (3-{9-[1-(2-chloro-4-fluorobenzyl)piperidin-4-yl]-6-morpholin-4-yl-9H-purin-2-yl}phenyl)methanol]"
50 nM,580 nM,"OCc1cccc(-c2nc(N3CCOCC3)c3ncn(C4CCN(Cc5cccc(Br)n5)CC4)c3n2)c1 [Compound 71, [3-(9-{1-[(6-bromopyridin-2-yl)methyl]piperidin-4-yl}-6-morpholin-4-yl-9H-purin-2-yl)phenyl]methanol]"
46 nM,490 nM,"OCc1cccc(-c2nc(N3CCOCC3)c3ncn(C4CCN(Cc5ccco5)CC4)c3n2)c1 [Compound 52, (3-{9-[1-(2-furylmethyl)piperidin-4-yl]-6-morpholin-4-yl-9H-purin-2-yl}phenyl)methanol]"
45 nM,650 nM,"OCc1cccc(-c2nc(N3CCOCC3)c3ncn(C4CCN(Cc5ccc(Cl)nc5)CC4)c3n2)c1 [Compound 63, [3-(9-{1-[(6-chloropyridin-3-yl)methyl]piperidin-4-yl}-6-morpholin-4-yl-9H-purin-2-yl)phenyl]methanol]"
42 nM,1200 nM,"OCc1cccc(-c2nc(N3CCOCC3)c3ncn(C4CCN(Cc5ccc(F)c(F)c5)CC4)c3n2)c1 [Compound 62, (3-{9-[1-(3,4-difluorobenzyl)piperidin-4-yl]-6-morpholin-4-yl-9H-purin-2-yl}phenyl)methanol]"
37 nM,200 nM,"Oc1cccc(-c2nc(N3CCOCC3)c3ncn(C4CCN(Cc5ccc(Cl)nc5)CC4)c3n2)c1 [Compound 78, 3-(9-{1-[(6-chloropyridin-3-yl)methyl]piperidin-4-yl}-6-morpholin-4-yl-9H-purin-2-yl)phenol]"
16 nM,> 4000 nM,CN(C)CCCOc1ccc(CN2CCC(n3cnc4c(N5CCOCC5)nc(-c5cccc(CO)c5)nc43)CC2)cc1 [Compound 75]
